Affinity and Ratio data for nine compounds are collected here from ChEMBL document CHEMBL1135564, “Diaryl-dialkyl-substituted pyrazoles: regioselective synthesis and binding affinity for the estrogen receptor” (Bioorg Med Chem Lett, 2002).

SMILES strings stand for the structures.

Assay [1] has as its target Estrogen receptor beta (Homo sapiens) (UniProt Q92731). Put plainly: Relative binding affinity (RBA) for human Estrogen receptor beta compared to estradiol.
For assay [2], the target named is T1, Estrogen receptor (Homo sapiens) (UniProt P03372).
T1 sequence (whole entry): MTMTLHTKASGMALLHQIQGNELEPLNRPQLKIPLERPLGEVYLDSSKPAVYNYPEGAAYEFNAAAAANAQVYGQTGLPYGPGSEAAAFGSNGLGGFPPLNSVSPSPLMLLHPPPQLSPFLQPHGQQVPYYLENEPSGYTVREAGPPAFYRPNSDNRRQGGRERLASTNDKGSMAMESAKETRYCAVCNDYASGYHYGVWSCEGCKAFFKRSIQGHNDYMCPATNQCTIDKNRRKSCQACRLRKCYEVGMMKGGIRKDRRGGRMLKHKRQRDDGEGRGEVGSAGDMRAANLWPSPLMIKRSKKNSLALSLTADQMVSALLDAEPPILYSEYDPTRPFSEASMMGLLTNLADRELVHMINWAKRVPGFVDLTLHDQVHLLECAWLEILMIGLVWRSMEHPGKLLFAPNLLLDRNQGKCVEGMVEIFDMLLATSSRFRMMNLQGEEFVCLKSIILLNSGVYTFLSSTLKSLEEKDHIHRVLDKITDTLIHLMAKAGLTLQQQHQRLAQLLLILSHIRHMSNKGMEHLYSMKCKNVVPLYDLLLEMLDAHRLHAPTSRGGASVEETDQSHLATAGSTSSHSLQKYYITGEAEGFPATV
Put plainly: Relative binding affinity (RBA) for human Estrogen receptor alpha compared to estradiol.

Assay [3] addresses Estrogen receptor (Homo sapiens) (UniProt Q92731+P03372). Kind of assay: Selectivity ratio as relative binding affinity for estrogen receptor alpha and beta. Type of assay: protein assay.

Sequence of Estrogen receptor beta (Homo sapiens) (Q92731 whole entry): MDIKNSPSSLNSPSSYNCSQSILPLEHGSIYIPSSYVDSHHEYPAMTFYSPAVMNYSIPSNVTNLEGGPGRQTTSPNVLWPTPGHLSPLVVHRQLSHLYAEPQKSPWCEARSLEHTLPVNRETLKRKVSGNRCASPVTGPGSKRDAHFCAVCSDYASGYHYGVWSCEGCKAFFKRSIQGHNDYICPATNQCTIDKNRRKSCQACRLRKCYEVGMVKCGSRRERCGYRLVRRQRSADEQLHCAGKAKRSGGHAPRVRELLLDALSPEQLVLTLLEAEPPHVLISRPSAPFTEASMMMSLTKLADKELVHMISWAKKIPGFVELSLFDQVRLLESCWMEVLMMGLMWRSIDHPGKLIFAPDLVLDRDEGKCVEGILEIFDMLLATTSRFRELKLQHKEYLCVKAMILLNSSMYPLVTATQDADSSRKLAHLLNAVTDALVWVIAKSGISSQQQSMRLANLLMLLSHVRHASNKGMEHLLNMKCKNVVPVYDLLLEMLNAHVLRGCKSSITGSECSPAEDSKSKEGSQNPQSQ

As to `Oc1ccc(-c2nn(-c3ccc(O)cc3)c3c2CCCC3)cc1`, the Affinity amounted to 0.042 in assay [1] and 0.56 in assay [2]. The Ratio in assay [3] stood at 13.

With `CCc1c(-c2ccc(O)cc2)nn(-c2ccc(O)cc2)c1C1CCCCC1`, the Affinity was found to be 0.14 in assay [1] and 0.59 in assay [2]. The Ratio in assay [3] came to 4.2.

`CCCc1c(-c2ccc(O)cc2)nn(C2CCCC2)c1-c1ccc(O)cc1`: the Affinity in assay [1] came out at 71; in assay [2] it was 74. The Ratio in assay [3] was found to be 1.

For the compound `CCc1c(-c2ccc(O)cc2)nn(-c2ccc(O)cc2)c1C1CCCC1`, the Affinity in assay [1] is 0.23; in assay [2], 2.1. The Ratio in assay [3] was 8.9.

Consider `CCCc1c(-c2ccc(O)cc2)nn(-c2ccc(O)cc2)c1-c1ccc(O)cc1`, for which the Affinity in assay [1] was 0.12; in assay [2], 49. The Ratio in assay [3] was 410.

As for `CCCc1c(-c2ccc(O)cc2)nn(-c2ccc(O)cc2)c1C1CCCCC1`, the Affinity worked out at 0.11 in assay [1] and 1.1 in assay [2]. The Ratio in assay [3] was 9.4.

For `Oc1ccc(-c2nn(-c3ccc(O)cc3)c3c2CCCCC3)cc1`, the Affinity turned out to be 0.047 in assay [1] and 0.19 in assay [2]. Further, the Ratio in assay [3] was determined as 4.

For `CCCc1c(-c2ccc(O)cc2)nn(C2CCCCC2)c1-c1ccc(O)cc1`, the Affinity in assay [1] was found to be 13; in assay [2] it was 30. Moreover, in assay [3], the Ratio was 2.3.

Turning to `CCCc1c(-c2ccc(O)cc2)nn(-c2ccc(O)cc2)c1C1CCCC1`, the results for the Affinity in assay [1] and in assay [2] were 0.6 and 3.6, respectively. Besides, the Ratio in assay [3] is 6.
